Laboratory results: the NIST ThermoML archive (doi:10.1016/j.tca.2015.01.022)

Assay: molar heat capacity at constant pressure
Settings: 101.33 kPa, Small (less than 1 g) adiabatic calorimetry

CCCCCCCC[n+]1ccn(C)c1.F[B-](F)(F)F [1-methyl-3-octylimidazolium tetrafluoroborate]
Settings | molar heat capacity at constant pressure [J/K/mol]
148.21 K, Glass | 270.7
149.81 K, Crystal | 251.1
150 K, Crystal | 251.3
150 K, Glass | 273.5
150.08 K, Crystal | 251.3
150.11 K, Glass | 273.6
151.75 K, Crystal | 253.4
152 K, Glass | 276.6
152.02 K, Crystal | 253.6
153.69 K, Crystal | 255.7
153.91 K, Glass | 279.6
153.96 K, Crystal | 255.9
155.63 K, Crystal | 258
155.81 K, Glass | 282.6
155.9 K, Crystal | 258.3
157.57 K, Crystal | 260.3
157.72 K, Glass | 285.4
157.84 K, Crystal | 260.6
159.5 K, Crystal | 262.7
159.62 K, Glass | 288.5
159.77 K, Crystal | 263
160 K, Crystal | 263.2
160 K, Glass | 289.3
161.44 K, Crystal | 265.2
161.53 K, Glass | 291.6
161.71 K, Crystal | 265.3
162.37 K, Glass | 293
163.37 K, Crystal | 267.5
163.44 K, Glass | 294.7
163.64 K, Crystal | 267.7
164.32 K, Glass | 296.1
165.31 K, Crystal | 270
165.35 K, Glass | 297.8
165.57 K, Crystal | 270.2
166.17 K, Glass | 299.2
167.24 K, Crystal | 272.5
167.26 K, Glass | 301.2
167.5 K, Crystal | 272.7
168.01 K, Glass | 302.3
169.16 K, Crystal | 275
169.17 K, Glass | 304.3
169.43 K, Crystal | 275.2
169.85 K, Glass | 305.4
170 K, Crystal | 276
170 K, Glass | 305.6
171.09 K, Crystal | 277.5
171.09 K, Glass | 307.7
171.36 K, Crystal | 277.7
171.68 K, Glass | 308.8
173 K, Glass | 311.1
173.01 K, Crystal | 280.1
173.28 K, Crystal | 280.3
173.52 K, Glass | 311.9
174.93 K, Crystal | 282.6
174.93 K, Glass | 314.5
175.2 K, Crystal | 282.9
175.35 K, Glass | 315.3
176.85 K, Crystal | 285.4
176.85 K, Glass | 318.4
177.12 K, Crystal | 285.7
177.17 K, Glass | 319.3
178.76 K, Crystal | 288.3
178.77 K, Glass | 322.6
179 K, Glass | 322.9
179.03 K, Crystal | 288.3
180 K, Crystal | 290
180 K, Glass | 325.4
180.67 K, Crystal | 291.1
180.7 K, Glass | 327.1
180.82 K, Glass | 327.4
180.94 K, Crystal | 291.4
182.58 K, Crystal | 293.9
182.63 K, Glass | 332.5
182.85 K, Crystal | 294.2
184.43 K, Glass | 338.1
184.48 K, Crystal | 296.7
184.56 K, Glass | 339
184.75 K, Crystal | 297
186.22 K, Glass | 345.5
186.38 K, Crystal | 299.8
186.48 K, Glass | 348
186.65 K, Crystal | 299.8
187.99 K, Glass | 355.9
188.27 K, Crystal | 302.6
188.39 K, Glass | 361.5
188.55 K, Crystal | 302.6
189.72 K, Glass | 373.1
190 K, Crystal | 305
190 K, Glass | 380.4
190.16 K, Crystal | 305.4
190.27 K, Liquid | 387.4
190.44 K, Crystal | 305.4
191.35 K, Liquid | 408.9
192.04 K, Crystal | 308.3
192.05 K, Liquid | 444.4
192.32 K, Crystal | 308.5
192.85 K, Liquid | 463.5
193.84 K, Liquid | 466.1
193.92 K, Crystal | 311.4
194.2 K, Crystal | 311.6
194.36 K, Liquid | 466.3
195.76 K, Liquid | 466.6
195.8 K, Crystal | 314.5
196.08 K, Crystal | 314.7
197.67 K, Crystal | 317.3
197.7 K, Liquid | 465.8
197.95 K, Crystal | 317.8
199.54 K, Crystal | 320.7
199.64 K, Liquid | 464.9
199.82 K, Crystal | 320.9
200 K, Crystal | 320
200 K, Liquid | 464.9
201.46 K, Crystal | 323.8
201.58 K, Liquid | 464.7
201.81 K, Crystal | 324.6
203.44 K, Crystal | 327.4
203.53 K, Liquid | 464.1
203.91 K, Crystal | 328.6
205.42 K, Crystal | 331.1
205.47 K, Liquid | 463.8
206.02 K, Crystal | 332.2
207.4 K, Crystal | 334.5
207.42 K, Liquid | 463.5
208.11 K, Crystal | 335.9
209.36 K, Liquid | 463.5
209.37 K, Crystal | 338.1
210 K, Crystal | 335
210 K, Liquid | 463.4
210.2 K, Crystal | 339.8
211.3 K, Liquid | 463.2
211.34 K, Crystal | 342.1
212.28 K, Crystal | 344.3
213.25 K, Liquid | 463.5
213.29 K, Crystal | 346
214.36 K, Crystal | 348
215.19 K, Liquid | 463.2
215.24 K, Crystal | 350
216.42 K, Crystal | 352.2
217.13 K, Liquid | 463.5
217.18 K, Crystal | 355
218.47 K, Crystal | 357.6
219.08 K, Liquid | 463.8
219.11 K, Crystal | 360.4
220 K, Crystal | 349.9
220 K, Liquid | 463.8
220.51 K, Crystal | 362.9
221.02 K, Crystal | 365.7
221.02 K, Liquid | 463.8
222.53 K, Crystal | 369.1
222.93 K, Crystal | 371.1
222.96 K, Liquid | 464.1
224.55 K, Crystal | 375
224.82 K, Crystal | 376.7
224.9 K, Liquid | 464.7
226.56 K, Crystal | 381
226.7 K, Crystal | 382.4
226.85 K, Liquid | 464.9
228.55 K, Crystal | 387.4
228.58 K, Crystal | 388.3
228.8 K, Liquid | 465.8
230 K, Crystal | 364.9
230 K, Liquid | 465.8
230.44 K, Crystal | 395.1
230.53 K, Crystal | 394.5
230.75 K, Liquid | 466.6
232.29 K, Crystal | 402.4
232.49 K, Crystal | 402.1
234.12 K, Crystal | 411.7
234.44 K, Crystal | 412
235.93 K, Crystal | 423.8
236.36 K, Crystal | 424.6
237.7 K, Crystal | 441.5
238.24 K, Crystal | 445.5
239.43 K, Crystal | 472
240 K, Crystal | 379.9
240 K, Liquid | 468.9
240.06 K, Crystal | 487.8
245.81 K, Crystal | 388.6
245.81 K, Liquid | 471
248.34 K, Liquid | 472
249.07 K, Liquid | 472.3
250 K, Liquid | 472.6
250.32 K, Liquid | 472.8
251 K, Liquid | 473.1
252.27 K, Liquid | 473.7
252.93 K, Liquid | 473.9
254.22 K, Liquid | 474.5
254.87 K, Liquid | 474.8
256.17 K, Liquid | 475.4
256.8 K, Liquid | 475.6
258.12 K, Liquid | 476.2
258.74 K, Liquid | 476.5
260 K, Liquid | 477.3
260.07 K, Liquid | 477.3
260.67 K, Liquid | 477.6
262.02 K, Liquid | 478.2
262.61 K, Liquid | 478.5
263.97 K, Liquid | 479.3
264.54 K, Liquid | 479.6
265.92 K, Liquid | 480.1
266.48 K, Liquid | 480.4
267.87 K, Liquid | 481.3
268.42 K, Liquid | 481.6
269.82 K, Liquid | 482.1
270 K, Liquid | 482.4
270.35 K, Liquid | 482.4
271.77 K, Liquid | 483.2
272.29 K, Liquid | 483.5
273.73 K, Liquid | 484.4
274.23 K, Liquid | 484.7
275.68 K, Liquid | 485.2
276.16 K, Liquid | 485.5
277.63 K, Liquid | 486.6
278.1 K, Liquid | 486.6
279.58 K, Liquid | 487.8
280 K, Liquid | 487.7
281.53 K, Liquid | 488.9
283.48 K, Liquid | 489.7
285.44 K, Liquid | 490.9
287.39 K, Liquid | 492
289.34 K, Liquid | 493.1
290 K, Liquid | 493.2
291.29 K, Liquid | 494.2
293.24 K, Liquid | 495.4
295.19 K, Liquid | 496.5
297.15 K, Liquid | 497.3
298.15 K, Liquid | 497.8
299.1 K, Liquid | 498.5
300 K, Liquid | 498.9
301.05 K, Liquid | 499.6
303 K, Liquid | 500.7
304.95 K, Liquid | 502.1
306.9 K, Liquid | 503
308.86 K, Liquid | 504.4
310 K, Liquid | 504.8
310.81 K, Liquid | 505.2
312.76 K, Liquid | 506.4
314.71 K, Liquid | 507.5
316.67 K, Liquid | 508.9
318.62 K, Liquid | 510
320 K, Liquid | 510.9
320.57 K, Liquid | 511.1
322.53 K, Liquid | 512.3
324.48 K, Liquid | 513.4
326.44 K, Liquid | 514.8
328.39 K, Liquid | 515.9
330 K, Liquid | 517.1
330.34 K, Liquid | 517.1
332.3 K, Liquid | 518.5
334.25 K, Liquid | 519.9
336.21 K, Liquid | 521
338.16 K, Liquid | 522.4
340 K, Liquid | 523.6
340.11 K, Liquid | 523.8
342.07 K, Liquid | 524.7
344.02 K, Liquid | 526.4
345.98 K, Liquid | 527.2
347.93 K, Liquid | 528.9
349.89 K, Liquid | 530.3
350 K, Liquid | 530.3
351.85 K, Liquid | 531.7
353.8 K, Liquid | 533.1
355.76 K, Liquid | 534.2
357.71 K, Liquid | 535.7
359.66 K, Liquid | 536.8
360 K, Liquid | 537.1
361.61 K, Liquid | 538.2
363.57 K, Liquid | 539.3
365.52 K, Liquid | 540.7
367.47 K, Liquid | 542.4
370 K, Liquid | 544.2
